Test results published in US6020305A, “Treatment of stress-induced skin disease by corticotropin releasing hormone antagonists and skin mast cell degranulation inhibitors” (Kos Pharmaceuticals, Inc., priority 1996, dated 2000).
Ends that are not written are not given here.

Columns and labels:
skin mast cells [1] = assay: Effect of drug pretreatment on dye extravasation induced by CRH; format: in vivo, rat; details: for Dye Extravasation (color intensity) by CRH after drug pretreatment: drug 10^-4 M pretreatment, then CRH 10^-4 M, n = 3
Description: (§1) 1. For extravasation experiments, male Sprague/Dawley rats, each weighing approximately 350 g (Taconic Farms, Germantown, N.Y.), were anesthetized with a single intraperitoneal injection of 0.5 ml ketamine and 0.5 ml xylazine (20 mg/ml each) and then injected intravenously with 0.1 ml of 1% Evan's blue 60 min prior to treatment.
(§2) 3. The pretreatment solution, when appropriate, was drawn first in the syringe followed by CRH from which it was separated by an air bubble. The pretreatment solution was injected first and was allowed to remain in the skin for 1 min; the needle was then changed, the air bubble ejected and CRH was injected and allowed to stay in the skin for 5 min. The animal was then killed by asphyxiation over CO2 vapor and decapitated; the skin was removed, turned over and photographed.

skin mast cells [2] = assay: Skin mast cell degranulation at injection site, light microscopy (toluidine blue); format: in vivo, rat; details: for Mast Cell Degranulation, Deg. MC: count of degranulated mast cells
From the text: 4. In other rats, the skin was rapidly removed at the end of the injection period and was fixed in 4% paraformaldehyde for light microscopy (Theoharides et al., Int. Arch. Allergy Immunol. 102:352 (1993)), which is incorporated herein by reference in its entirety. The tissue was then frozen and thin sections (7 μ) were cut using a cryostat (Jung CM 3000, Leica, Luc. Deerfield, Ill.). The sections were stained with acidified (pH<2.5) toluidine blue (Sigma, St. Louis) and all mast cells were counted, by two different researchers blinded to the experimental conditions, at 400× magnification using a Diaphot inverted Nikon microscope (Don Santo, Mass.).

peritoneal mast cells = assay: Histamine release from purified peritoneal mast cells; format: cell-based, rat
pleural mast cells = assay: Histamine release from purified pleural mast cells; format: cell-based, rat
skin mast cells [3] = assay: Dye (Evan's blue) extravasation after intradermal injection; format: in vivo, rat
Description: as §1, §2

skin mast cells [4] = assay: Ultrastructural analysis of CRH-treated skin mast cells; format: in vivo, rat; details: CRH-injected sites
From the text: The effect of CRH on both vasodilation and mast cell activation was dose-dependent from 10^-4 M-10^-8 M (Table 1).

skin mast cells [5] = assay: Skin mast cell activation by CRH in rats treated neonatally with capsaicin; format: in vivo, rat; details: CRH 10^-4 M, neonatal capsaicin

## OCCOCCN1CCN(C(c2ccccc2)c2ccc(Cl)cc2)CC1 (stereo not drawn) [Hydroxyzine, hydroxyzine]
Skin mast cells [1]
  Dye Extravasation (color intensity) by CRH after drug pretreatment: blocked the CRH effect entirely

## [D-Phe^12 Nle^21,38, Ala^32 ]rCRH(12-41) [CRH-α]
Skin mast cells [1]; antagonist 10^-4 M, CRH 10^-6 M
  inhibition of dye extravasation by CRH: could not inhibit
Skin mast cells [1]; plasma extravasation and mast cell degranulation
  block of the effect of CRH: did not block
Skin mast cells [2]; 10^-4 M
  Mast Cell Degranulation, % total deg.: 25 % total
  Mast Cell Degranulation, Deg. MC: 28

## substance P [SP]
Peritoneal mast cells; 10^-5 M
  Histamine Release (% total), Peritoneal Calcium: 39.5 % total
Pleural mast cells; 10^-4 M
  Histamine Release (% total), Pleural + Calcium: 49.346 % total
  Histamine Release (% total), Pleural - Calcium: 54.591 % total
Pleural mast cells; 10^-5 M
  Histamine Release (% total), Pleural + Calcium: 22.919 % total
  Histamine Release (% total), Pleural - Calcium: 28.871 % total
Pleural mast cells; 10^-6 M
  Histamine Release (% total), Pleural + Calcium: 2.088 % total
  Histamine Release (% total), Pleural - Calcium: 8.538 % total

## Corticotropin-Releasing Hormone (SEEPPISLDLTFHLLREVLEMARAEQLAQQAHSNRKLMEII; ends and bridges not checked; UniProt P06850 154-194, looked up) [CRH, major regulator of the hypothalamic-pituitary-adrenal axis; peptide from Sigma]
Skin mast cells [3]; 10^-4 M-10^-8 M
  dose dependence of effect on vasodilation and mast cell activation: dose-dependent
Skin mast cells [3]; compared with equimolar C48/80 or SP
  skin vascular permeability, as evidenced by dye extravasation: marked increases
Skin mast cells [4]
  ultrastructural signs of mast cell activation (loss of electron dense granule content): obvious sign of activation
Skin mast cells [5]
  mast cell activation in capsaicin-treated animals: unaffected
Peritoneal mast cells; 10^-4 M
  Histamine Release (% total), Peritoneal Calcium: 25.5 % total
  Histamine Release (% total), Peritoneal + Calcium: 6.3 % total
Peritoneal mast cells; 10^-5 M
  Histamine Release (% total), Peritoneal Calcium: 6.9 % total
  Histamine Release (% total), Peritoneal + Calcium: 1.9 % total
Peritoneal mast cells; 10^-6 M
  Histamine Release (% total), Peritoneal Calcium: 4.9 % total
  Histamine Release (% total), Peritoneal + Calcium: 2.0 % total
Peritoneal mast cells; in words
  effect on peritoneal mast cells (histamine release): largely ineffective
Pleural mast cells; 10^-4 M
  Histamine Release (% total), Pleural + Calcium: 22.06 % total
  Histamine Release (% total), Pleural - Calcium: 34.244 % total
Pleural mast cells; 10^-5 M
  Histamine Release (% total), Pleural + Calcium: 2.102 % total
  Histamine Release (% total), Pleural - Calcium: 8.579 % total
Pleural mast cells; 10^-6 M
  Histamine Release (% total), Pleural + Calcium: 1.411 % total
  Histamine Release (% total), Pleural - Calcium: 4.253 % total
Pleural mast cells; in words, required absence of extracellular calcium ions
  histamine release from pleural mast cells: induced histamine release
Skin mast cells [2]; 10^-4 M
  Mast Cell Degranulation, Deg. MC: 426
Skin mast cells [2]; 10^-5 M
  Mast Cell Degranulation, % total deg.: 37 % total
  Mast Cell Degranulation, Deg. MC: 327
Skin mast cells [2]; 10^-6 M
  Mast Cell Degranulation, % total deg.: 42 % total
  Mast Cell Degranulation, Deg. MC: 331
Skin mast cells [2]; 10^-7 M
  Mast Cell Degranulation, % total deg.: 37 % total
  Mast Cell Degranulation, Deg. MC: 329
Skin mast cells [2]; 10^-8 M
  Mast Cell Degranulation, % total deg.: 32 % total
  Mast Cell Degranulation, Deg. MC: 254
Skin mast cells [2]; 10^-9 M
  Mast Cell Degranulation, % total deg.: 28 % total
  Mast Cell Degranulation, Deg. MC: 202
Skin mast cells [2]; 10^-10 M
  Mast Cell Degranulation, % total deg.: 26 % total
  Mast Cell Degranulation, Deg. MC: 239

## CN(C)CCC=C1c2ccccc2COc2ccccc21 [Doxepin, doxepin]
Skin mast cells [1]
  Dye Extravasation (color intensity) by CRH after drug pretreatment: blocked the CRH effect entirely

## CC(C)(C)c1ccc(C(O)CCCN2CCC(C(O)(c3ccccc3)c3ccccc3)CC2)cc1 (stereo not drawn) [Terfenadine, terfenadine]
Skin mast cells [1]
  Dye Extravasation (color intensity) by CRH after drug pretreatment: reduced the CRH effect slightly

## C[C@H](N)C(=O)NCC(=O)N[C@H]1CSSC[C@@H](C(=O)O)NC(=O)[C@H](CO)NC(=O)[C@H]([C@@H](C)O)NC(=O)[C@H](Cc2ccccc2)NC(=O)[C@H]([C@@H](C)O)NC(=O)[C@H](CCCCN)NC(=O)[C@H](Cc2c[nH]c3ccccc23)NC(=O)[C@H](Cc2ccccc2)NC(=O)[C@H](Cc2ccccc2)NC(=O)[C@H](CC(N)=O)NC(=O)[C@H](CCCCN)NC1=O [Somatostatin, somatostatin]
Skin mast cells [3]; 10^-12 M
  fluid extravasation, substance alone: still apparent
Skin mast cells [3]; alone, as strong as that seen with CRH
  fluid extravasation, substance alone: significant fluid extravasation
Skin mast cells [1]
  Dye Extravasation (color intensity) by CRH after drug pretreatment: more dye extravasation than CRH alone
